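Where inhibition never reached the appropriate level, the endpoint shown equals the highest concentration tested. Otherwise, values were interpolated linearly from a five-concentration, 48-hour dose response in 96-well plates. Abbreviation: GI50, concentration required for 50% inhibition of growth. TGI: total growth inhibition.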
Experiments:
Experiment in all cases: growth of human tumour cells (NCI), 48 h
LOX IMVI melanoma = system: LOX IMVI melanoma
UO-31 renal = system: UO-31 renal
SNB-75 CNS = system: SNB-75 CNS
IGROV1 ovarian = system: IGROV1 ovarian
A498 renal = system: A498 renal
OVCAR-3 ovarian = system: OVCAR-3 ovarian
NCI-H23 lung = system: NCI-H23 lung
HCC-2998 colon = system: HCC-2998 colon
SK-MEL-5 melanoma = system: SK-MEL-5 melanoma
NCI-H226 lung = system: NCI-H226 lung

Row | Compound | TGI (LOX IMVI melanoma) | TGI (UO-31 renal) | TGI (SNB-75 CNS) | TGI (IGROV1 ovarian) | TGI (A498 renal) | TGI (OVCAR-3 ovarian) | TGI (NCI-H23 lung) | TGI (HCC-2998 colon) | GI50 (LOX IMVI melanoma) | GI50 (UO-31 renal) | GI50 (SNB-75 CNS) | GI50 (IGROV1 ovarian) | GI50 (A498 renal) | GI50 (SK-MEL-5 melanoma) | TGI (SK-MEL-5 melanoma) | GI50 (OVCAR-3 ovarian) | GI50 (NCI-H23 lung) | GI50 (HCC-2998 colon) | TGI (NCI-H226 lung) | GI50 (NCI-H226 lung)
1 | Cc1cc2c(c(C(N)=O)c1C)-c1ccccc1C2=O | > 100 µM | > 100 µM | > 100 µM | > 100 µM | > 100 µM | > 100 µM | > 100 µM | > 100 µM | – | – | – | – | – | – | – | – | – | – | – | –
2 | CCCc1cc(=O)n2c(C(=O)Nc3ccc(Cl)cc3C)c(C(=O)Nc3ccc(F)cc3)sc2n1 | 19.9 µM | 30.4 µM | 11.5 µM | 33.6 µM | 99.8 µM | 8.33 µM | > 150 µM | > 150 µM | 1.6 µM | 7.35 µM | 3.71 µM | 9.31 µM | 29.2 µM | 27.1 µM | > 150 µM | 3.35 µM | 26.4 µM | 96.6 µM | – | –
3 | CCOC(=O)NC(=O)c1cn(C2CCCCC2)c(=O)[nH]c1=O | > 100 µM | > 100 µM | – | > 100 µM | > 100 µM | > 100 µM | > 100 µM | > 100 µM | – | – | – | – | – | – | – | – | – | – | > 100 µM | –
4 | CC(=O)N1CCN(c2ccc(OCC3COC(Cn4ccnc4)(c4ccc(Cl)cc4Cl)O3)cc2)CC1 (stereo not drawn) | 36 µM | 91.9 µM | – | > 100 µM | > 100 µM | > 100 µM | – | > 100 µM | – | – | – | – | – | – | 24.9 µM | – | – | – | 73.6 µM | –
5 | CCCC(=O)C1=C(O)C(Cc2c(O)c(C)c(O)c(C(=O)CCC)c2O)=C(O)C(C)(C)C1=O | > 50 µM | > 50 µM | > 50 µM | > 50 µM | > 50 µM | > 50 µM | > 50 µM | 34.2 µM | – | – | – | – | – | – | > 50 µM | – | – | – | – | –
6 | O=C(O)c1cccc(COc2ccc([N+](=O)[O-])cc2Cl)c1 | > 100 µM | > 100 µM | > 100 µM | > 100 µM | – | > 100 µM | – | > 100 µM | 94 µM | > 100 µM | > 100 µM | 74.6 µM | – | 40.1 µM | > 100 µM | 50.3 µM | – | > 100 µM | – | –
7 | COc1ccc(CC2c3c(cc(OC)c(OC)c3OC)CCN2C)cc1OC (stereo not drawn) | – | > 100 µM | > 100 µM | – | > 100 µM | > 100 µM | > 100 µM | > 100 µM | – | – | – | – | – | – | > 100 µM | – | – | – | – | –
8 | O=C(N/C(=C\c1ccc([N+](=O)[O-])cc1)c1nc2ccccc2[nH]1)c1ccccc1 | – | > 100 µM | – | > 100 µM | > 100 µM | – | > 100 µM | > 100 µM | – | – | – | – | – | – | > 100 µM | – | – | – | – | –
9 | COc1cc2c(cc1O)CCN[C@]21CS[C@@H]2c3c(OC(C)=O)c(C)c4c(c3[C@H](COC1=O)N1[C@@H]2[C@H]2c3c(cc(C)c(OC)c3O)C[C@@H]([C@@H]1O)N2C)OCO4 | 0.262 µM | – | – | 1.96 µM | – | 0.0057 µM | 0.0057 µM | 0.00652 µM | – | – | – | 0.00257 µM | – | – | 0.00433 µM | – | – | 0.00352 µM | 0.00582 µM | 0.00313 µM
10 | COC(=O)C1C(O)C(C(=O)OC)C(C)N(C)C1C (stereo not drawn) | > 100 µM | > 100 µM | – | > 100 µM | > 100 µM | > 100 µM | > 100 µM | – | – | – | – | – | – | – | > 100 µM | – | – | – | > 100 µM | –
11 | O=C1c2ccccc2-c2c1c1ccccc1c(=O)n2CCN1CCNCC1 | 2.99 µM | 13 µM | 23.2 µM | > 100 µM | – | 6.93 µM | – | 5.01 µM | 0.735 µM | 2.24 µM | 6.26 µM | 3.61 µM | – | – | – | 1.12 µM | – | 0.785 µM | 3.15 µM | 1.06 µM
12 | CC(C)=C1CCC(CN(C)C)C1=O (stereo not drawn) | – | > 100 µM | 24.2 µM | > 100 µM | 36.9 µM | 31.7 µM | > 100 µM | 33.2 µM | – | – | – | – | – | – | 32.9 µM | – | – | – | – | –
13 | CCC(C)(O)c1cnc(CC(C)C)c(=O)n1O (stereo not drawn) | > 100 µM | > 100 µM | > 100 µM | > 100 µM | > 100 µM | 81.6 µM | > 100 µM | > 100 µM | – | – | – | – | – | – | > 100 µM | – | – | – | – | –
14 | COc1ccc(C(=O)c2cc(OC)c(OC)c(OC)c2)cc1OC | > 100 µM | 39.4 µM | > 100 µM | > 100 µM | – | 9.47 µM | > 100 µM | 5.79 µM | – | – | – | – | – | – | > 100 µM | – | – | – | – | –
15 | COc1cc(/C=C\c2cc(OC)c(OC)c(OC)c2)cc(N/C=C\C(=O)c2c[nH]c3ccccc23)c1OC | – | 2.05 µM | 2.92 µM | 3.56 µM | 12 µM | 3.21 µM | 16.2 µM | 10.5 µM | – | 0.326 µM | 1.47 µM | 1.23 µM | 1.32 µM | 3.14 µM | 12.6 µM | 1.72 µM | 3.75 µM | 3.34 µM | 27.7 µM | 7.28 µM
16 | COc1ccc(-c2nc(-c3cc(OC)cc(OC)c3)[nH]c2-c2ccc(OC)cc2)cc1 | – | > 100 µM | > 100 µM | > 100 µM | > 100 µM | > 100 µM | > 100 µM | > 100 µM | – | 5.72 µM | > 100 µM | > 100 µM | > 100 µM | 1.85 µM | 3.7 µM | 5.95 µM | 4.72 µM | 5.96 µM | > 100 µM | 5.47 µM
17 | COc1cc2c(/C=N\N=C(N)N)c[nH]c2cc1C | > 100 µM | > 100 µM | – | > 100 µM | 73.9 µM | 27.3 µM | 53.5 µM | 29.2 µM | 31.8 µM | > 100 µM | – | 33.2 µM | 27.3 µM | 17.2 µM | 30.9 µM | 13.5 µM | 18.7 µM | 15.8 µM | 71.8 µM | 17.1 µM
18 | CCCC/C(=C\C1=C(C)C(=O)C(OC)=C(OC)C1=O)C(=O)O | > 100 µM | > 100 µM | > 100 µM | > 100 µM | > 100 µM | > 100 µM | > 100 µM | > 100 µM | > 100 µM | > 100 µM | 25.2 µM | > 100 µM | > 100 µM | > 100 µM | > 100 µM | > 100 µM | > 100 µM | > 100 µM | – | –
19 | CCC/C=C/C=C/C1CC(O)C(O)C(=O)C1CO (stereo not drawn) | > 100 µM | > 100 µM | > 100 µM | > 100 µM | – | > 100 µM | > 100 µM | > 100 µM | – | – | – | – | – | – | > 100 µM | – | – | – | > 100 µM | –
20 | N#CCCN1C/C(=C/c2ccc(Br)cc2)C(=O)/C(=C/c2ccc(Br)cc2)C1 | 1.76 µM | 2.92 µM | 31.4 µM | 5.35 µM | – | – | 7.58 µM | 3.31 µM | 0.512 µM | 1.47 µM | 4.35 µM | 2.02 µM | – | 1.58 µM | 2.93 µM | – | 2.64 µM | 1.85 µM | – | –
21 | Nc1nc(-c2ccc(Cl)c([N+](=O)[O-])c2)cs1 | > 100 µM | > 100 µM | 92.7 µM | > 100 µM | 92.1 µM | > 100 µM | > 100 µM | > 100 µM | – | – | – | – | – | – | > 100 µM | – | – | – | – | –
22 | Cn1cc(-c2csc(-c3cn(CCCCN4CCCCC4)c4ccccc34)n2)c2cccnc21 | 3.21 µM | 2.95 µM | 2.99 µM | – | 3 µM | 3.13 µM | 3.21 µM | 3.41 µM | 1.71 µM | 1.51 µM | 1.51 µM | – | 1.61 µM | – | – | 1.71 µM | 1.66 µM | 1.85 µM | – | –
23 | COC(=O)/C(=N/O)C(C(=O)C=C(C)C)C(=O)C(=O)Nc1nc2ccc([N+](=O)[O-])cc2s1 (stereo not drawn) | 93.1 µM | 92.8 µM | – | > 100 µM | 31 µM | 76.1 µM | 83.2 µM | > 100 µM | – | – | – | – | – | – | > 100 µM | – | – | – | 72.1 µM | –
24 | O=[N+]([O-])c1cccc(C2=NOC(C3CCCCC3)C2)c1 (stereo not drawn) | – | > 100 µM | > 100 µM | > 100 µM | > 100 µM | > 100 µM | > 100 µM | > 100 µM | – | – | – | – | – | – | > 100 µM | – | – | – | > 100 µM | –
25 | O=C(/C(=C\c1c(-c2ccccc2)[nH]c2ccccc12)S(=O)(=O)c1ccccc1)c1ccccc1 | > 100 µM | > 100 µM | > 100 µM | > 100 µM | – | > 100 µM | > 100 µM | > 100 µM | 74.7 µM | > 100 µM | 10.1 µM | > 100 µM | – | 9.01 µM | > 100 µM | > 100 µM | 9.57 µM | > 100 µM | > 100 µM | > 100 µM
26 | CC1=NN(C(=O)CC(=O)Nc2ccccc2F)C(=O)C1N=Nc1ccccc1[N+](=O)[O-] (stereo not drawn) | – | > 100 µM | > 100 µM | > 100 µM | – | > 100 µM | > 100 µM | – | – | – | – | – | – | – | 33.5 µM | – | – | – | > 100 µM | –
27 | Cc1ccc(C)c(N2C/C(=N\NC(=O)CC#N)C(c3nc4ccccc4s3)C(=O)C2=O)c1 (stereo not drawn) | – | > 100 µM | > 100 µM | > 100 µM | > 100 µM | > 100 µM | > 100 µM | > 100 µM | – | – | – | – | – | – | > 100 µM | – | – | – | > 100 µM | –
28 | O=C(Nc1cc(Cl)ccc1O)c1ccc(Nc2ccnc(C(F)(F)F)c2)cc1 | 76.9 µM | 6.13 µM | – | 8.19 µM | 7.17 µM | 5.58 µM | 7.81 µM | > 100 µM | 3.09 µM | 1.93 µM | – | 2.34 µM | 2.39 µM | 2.19 µM | 4.95 µM | 2.16 µM | 2.46 µM | 3.73 µM | 7.33 µM | 2.02 µM
